{"source": "patent US11726081B2", "about": "“Methods to identify modulators of tau protein structure” (REGENTS OF THE UNIVERSITY OF MINNESOTA, priority 2019, dated 2023)", "key": {"[1]": {"molecular_target": "purified recombinant full-length 2N4R wild-type (WT) tau protein (Homo sapiens, UniProt P10636)", "test": "Surface plasmon resonance (SPR) binding assay, WT tau", "conditions": "for direct binding to immobilized tau protein: 1 nM to 5 μM"}, "[2]": {"molecular_target": "tau preformed fibrils (PFF) (Homo sapiens, UniProt P10636)", "test": "ThT assay on tau preformed fibrils (PFF)", "assay_type": "biochemical", "conditions": "DTT 5 mM", "method": "HEK293 cells were transfected with tau-RFP (at equivalent DNA concentration as used in the tau FRET biosensor) for 48 hours prior to the addition of tau preformed fibrils (PFF). Tau-GFP was not used as it would interfere with the thioflavin-S(ThS) signal. To make the PFF, 100 μl of purified tau proteins (10 μM) with DTT (5 mM) and heparin (0.4 mg/ml) were first incubated for 120 hours at 37° C. and shook at 1000 rpm in a thermal shaker (Thermo Fisher Scientific). After incubation, the sample was subjected to ultracentrifugation at 80,000 rpm for 30 minutes. The pellet was collected and sonicated to break up the fibrils into smaller pieces. The concentration of the fibrils was then measured by BCA. […] Cells were then imaged with a fluorescence microscope using EVOS-FL cell imaging systems at 20× magnification. Mean fluorescence intensity for each image was quantified using ImageJ and values were normalized to untransfected controls.\nThioflavin-T (ThT, Sigma, product no. T3516) was dissolved in PBS buffer and was filtered through a 0.2 μm syringe filter to make a stock solution of 2.5 mM. […] The ThT samples (50 μl each) were transferred to a black 96-well non-binding surface microplate with clear bottom (Corning product no. 3655) and incubated at 37° C. with mild shaking (200 rpm) in the Cytation 3 plate reader. […] Readings were acquired every 20 minutes for a total of 120 hours."}, "[3]": {"system": "WT 2N4R tau", "test": "Single-molecule FRET (smFRET) on labelled tau monomer", "assay_type": "biochemical", "conditions": "5 μM", "text": "For site-specific labeling with maleimide-reactive fluorophores, cysteine residues were introduced using QuikChange Site-Directed Mutagenesis (Stratagene). Naturally occurring cysteines were mutated to serines. Labelling positions were selected to roughly mark the boundaries of the N-terminal domain or the proline-rich and microtubule-binding region of tau. Tau protein was purified as described above and labeled immediately following purification following published protocols. Briefly, the protein (typically 200 μL of ˜100 μM protein) was incubated with 1 mM DTT for 30 minutes at room temperature followed by exchange into labeling buffer (20 mM Tris pH 7.4, 50 mM NaCl, and 6 M guanidine HCl) to remove DTT. […]\nSingle-molecule FRET measurements were carried out using ˜30 pM of labelled tau in phosphate buffer (40 mM potassium phosphate, 50 mM KCl, pH 7.4) in 8-chambered Nunc coverslips (ThermoFisher) passivated with poly(ethylene glycol) poly(L-lysine) (PEG-PLL) to reduce protein adsorption to the chambers. […] Fluorescence emission was collected through the objective and passed through a 150 μm diameter pinhole. Photons were separated by an HQ585LP dichroic in combination with ET525/50M and HQ600LP filters and detected by avalanche photodiodes. […] The FRET efficiency (ETeff) was calculated using SymphoTime 64 software. […]"}, "[4]": {"molecular_target": "purified WT tau proteins (Homo sapiens, UniProt P10636)", "test": "Heparin induced thioflavin-T (ThT) aggregation assay", "assay_type": "biochemical", "method": "Thioflavin-T (ThT, Sigma, product no. T3516) was dissolved in PBS buffer and was filtered through a 0.2 μm syringe filter to make a stock solution of 2.5 mM. ThT was then diluted to […] prior to addition to the tau proteins. The samples for ThT measurements were prepared by mixing 25 μl of 20 μM tau proteins with 25 μl of 20 μM of ThT, resulting in final concentrations of 10 μM tau proteins and 10 μM ThT. DTT (5 mM) and heparin (0.4 mg/ml) were then added to the samples; a control sample lacked addition of heparin. Lastly, the samples were treated with MK-886 (0.5 μM or 5 μM) and gossypetin (50 μM) with DMSO added to the no-compound controls. The ThT samples (50 μl each) were transferred to a black 96-well non-binding surface microplate with clear bottom (Corning product no. 3655) and incubated at 37° C. with mild shaking (200 rpm) in the Cytation 3 plate reader. The ThT fluorescence was measured by the Cytation 3 plate reader through the bottom of the plate with excitation filter of 440 nm and emission filter of 480 nm. Readings were acquired every 20 minutes for a total of 120 hours."}, "[5]": {"molecular_target": "T1, tau intra-molecular FRET biosensor (GFP-tau-RFP) (Homo sapiens, UniProt P10636)", "T1 construct": "The FRET biosensors express full-length 2N4R wild-type (WT) tau; […]; expressed in transfected cells", "test": "Cellular tau intra-molecular FRET biosensor, dose-response", "assay_type": "cell-based", "conditions": "GFP-tau-RFP stable HEK293 cells; read-out: EC50, reduction of intra-molecular FRET", "method": "To generate tau-GFP and tau-RFP, cDNA encoding full-length 2N4R tau (441 amino acids) was fused to the N-terminus of EGFP and TagRFP vectors. […] The GFP-tau-RFP was generated by fusing the N-terminal of tau to the C-terminus of GFP and the C-terminus of tau to the N-terminus of RFP. All constructs contain the monomeric mutation A206K to prevent constitutive fluorophore clustering.\nHEK293 and SH-SY5Y cells (ATCC) were cultured in phenol red-free Dulbecco's Modified Eagle Medium (DMEM, Gibco) supplemented with 2 mM L-Glutamine (Invitrogen), heat-inactivated 10% fetal bovine serum (FBS HI, Gibco), 100 U/ml penicillin and 100 μg/ml streptomycin (Gibco). Cell cultures were maintained in an incubator with 5% CO2 (Forma Series II Water Jacket CO2 Incubator, Thermo Scientific) at 37° C. […] To generate stable cell lines expressing GFP-tau-RFP or tau-GFP only, HEK293 cells were transiently transfected using Lipofectamine 3000 with GFP-tau-RFP or tau-GFP DNA plasmids. Transiently transfected cells were treated with G418 (Enzo Life Sciences, Farmingdale, N.Y.) to eliminate non-expressing cells. Stable cell lines expressing GFP-tau-RFP or tau-GFP with the largest population of expressing cells were selected by fluorescence microscopy. The GFP-linker-RFP (linker contains 32 amino acids, GFP-32AA-RFP) control stable cell line was generated as described previously. […]"}, "[6]": {"molecular_target": "T2, WT tau FRET biosensor (tau-GFP/RFP) (Homo sapiens, UniProt P10636)", "test": "WT tau inter-molecular FRET biosensor in HEK293 cells (dose-response, functionality)", "assay_type": "cell-based", "parameters": "cDNA encoding full-length 2N4R tau (441 amino acids); […]; expressed in transfected cells; host or cells: HEK293, transient, tau-GFP:tau-RFP plasmids 1:20", "method": "(§1) HEK293 and SH-SY5Y cells (ATCC) were cultured in phenol red-free Dulbecco's Modified Eagle Medium (DMEM, Gibco) supplemented with 2 mM L-Glutamine (Invitrogen), heat-inactivated 10% fetal bovine serum (FBS HI, Gibco), 100 U/ml penicillin and 100 μg/ml streptomycin (Gibco). Cell cultures were maintained in an incubator with 5% CO2 (Forma Series II Water Jacket CO2 Incubator, Thermo Scientific) at 37° C. […] To generate stable cell lines expressing GFP-tau-RFP or tau-GFP only, HEK293 cells were transiently transfected using Lipofectamine 3000 with GFP-tau-RFP or tau-GFP DNA plasmids. Transiently transfected cells were treated with G418 (Enzo Life Sciences, Farmingdale, N.Y.) to eliminate non-expressing cells. Stable cell lines expressing GFP-tau-RFP or tau-GFP with the largest population of expressing cells were selected by fluorescence microscopy. The GFP-linker-RFP (linker contains 32 amino acids, GFP-32AA-RFP) control stable cell line was generated as described previously. The control cells expressing only free soluble fluorophores (GFP or RFP only) were generated by transiently transfecting HEK293 cells using Lipofectamine 3000 with plasmids containing GFP or RFP DNAs at the same plasmid concentration as the inter-molecular tau FRET biosensor.\n(§2) The compound was dissolved in DMSO to make a 10 mM stock solution, which was serially diluted in 96-well mother plates. […]"}, "[7]": {"system": "GFP-32AA-RFP", "test": "GFP-32AA-RFP fluorophores-only FRET control", "assay_type": "cell-based, human", "method": "as §1, §2"}, "[8]": {"molecular_target": "T2, WT tau FRET biosensor (tau-GFP/RFP)", "test": "Pilot HTS of NCC library with tau FRET biosensor (fluorescence lifetime)", "conditions": "10 μM, 2 hours"}, "[9]": {"system": "soluble free GFP/RFP", "test": "Soluble free GFP/RFP-only FRET control", "assay_type": "cell-based, human", "method": "as §1, §2"}, "[10]": {"conditions": "control, 72 hours of incubation"}}, "note": "“Also recorded” adds a separate entry of the source."}
{"molecule": "CCc1oc2ccccc2c1C(=O)c1cc(Br)c(O)c(Br)c1", "note": "[Benzbromarone]", "values": [{"measurement": "direct binding to immobilized tau protein", "setting": "[1]", "result": "no direct binding or interaction"}]}
{"molecule": "CCCCNc1cc(C(=O)O)cc(S(N)(=O)=O)c1Oc1ccccc1", "note": "[Bumetanide]", "values": [{"measurement": "direct binding to immobilized tau protein", "setting": "[1]", "result": "no direct binding or interaction"}]}
{"molecule": "CC(C)c1ccc2c(c1)c(SC(C)(C)C)c(CC(C)(C)C(=O)O)n2Cc1ccc(Cl)cc1", "note": "[MK-886]", "values": [{"measurement": "ThT signal from tau preformed fibrils (PFF)", "setting": "[2]", "result": "did not reduce the ThT signal"}, {"measurement": "smFRET change, N-terminal domain labelled construct", "setting": "[3]", "result": "only a minor decrease in FRET; also recorded: only minor differences"}, {"measurement": "smFRET change, PRR/MTBR labelled construct", "setting": "[3]", "result": "substantial increase in FRET; also recorded: substantially more compact (increase in FRET)"}, {"measurement": "direct effect on ThT fluorescence", "setting": "[4]; [10]", "result": "did not have a direct effect on ThT fluorescence; also recorded: do not interfere with ThT fluorescence"}, {"measurement": "nucleation of fibril formation without heparin", "setting": "[4]; [10]", "result": "unable to nucleate tau fibrillization; also recorded: did not act to nucleate for fibril formation; also recorded: does not act as a nucleation center"}, {"measurement": "lag phase of tau β-sheet fibril formation", "setting": "[4]; heparin 0.4 mg/ml, MK-886 0.5 and 5 μM", "result": "reduces the lag phase; also recorded: shortens the lag phase"}, {"measurement": "EC50", "setting": "[5]", "result": 2120, "unit": "nM"}, {"measurement": "EC50", "setting": "[6]; read-out: EC50, decrease of FRET efficiency, WT tau biosensor", "result": 1400, "unit": "nM"}, {"measurement": "FRET change in GFP-32AA-RFP control cells", "setting": "[7]", "result": "does not cause any significant FRET change"}, {"measurement": "size of FRET change among the hits", "setting": "[8]", "result": "strongest change in FRET; also recorded: largest FRET change"}, {"measurement": "FRET change in soluble free GFP/RFP-only control cells", "setting": "[9]", "result": "does not cause any significant FRET change"}, {"measurement": "direct binding to immobilized tau protein", "setting": "[1]", "result": "dose-dependent binding"}, {"measurement": "Kd", "setting": "[1]; steady-state, immobilized tau, 25° C.", "result": 178, "unit": "nM"}]}
{"molecule": "Cc1cccc(Nc2ccncc2S(=O)(=O)NC(=O)NC(C)C)c1", "note": "[Torsemide]", "values": [{"measurement": "direct binding to immobilized tau protein", "setting": "[1]", "result": "no direct binding or interaction"}]}
{"molecule": "Oc1cc(Cl)ccc1Oc1ccc(Cl)cc1Cl", "note": "[Triclosan]", "values": [{"measurement": "direct binding to immobilized tau protein", "setting": "[1]", "result": "no direct binding or interaction"}]}
{"molecule": "O=c1c(O)c(-c2ccc(O)c(O)c2)oc2c(O)c(O)cc(O)c12", "note": "[gossypetin]", "values": [{"measurement": "ThT signal from tau preformed fibrils (PFF)", "setting": "[2]", "result": "showed a significant decrease"}, {"measurement": "direct effect on ThT fluorescence", "setting": "[4]; [10]", "result": "do not interfere with ThT fluorescence"}, {"measurement": "sensitivity of the FRET biosensor to the compound", "setting": "[6]; functionality test", "result": "not"}]}
